These results are taken from patent publication US20040127455A1, “Muscosal immunoregulatory agent and its use” (KABUSHIKI Kaisha Hayashibara Seibutsu KK, priority 2000, published 2004).

The test system of assay [1] is immunocompetent cells from the Peyer's patches. In words: IFN-γ production by immunocompetent cells from the Peyer's patches of orally treated mice, LPS stimulation (Experiment 1). It is filed as in vivo, male C3H/HeN mice. To be noted: 1 g/kg oral, once per day for five days, two days culture, versus non-treated mice (FIG. 1). The method, then:
The effect on response of immunocompetent cells with trehalose administration was evaluated based on the production level of IFN-γ as a merkmal when the immunocompetent cells from the Peyer's patches were stimulated with lipopolysaccharide (LPS). IFN-γ is a cytokine which also improves the production of IgA as described above. α,α-Trehalose crystalline powder (registered trademark of “TREHA”, commercialized by Hayashibara Shoji Co. Ltd., Okayama, Japan) was dissolved in distilled water and sterilized, and then administrated into male C3H/HeN, five weeks aged mice (ten mice in each group) through oral pathway for five days by one time per day with a dosage of 1 g/kg mouse body weight of α,α-trehalose. Non-α,α-trehalose administrated mice as a control were administrated with an equal volume of distilled water. All the mice were bred under a clean environment, and freely fed with a sterilized solid fodder and water. […] The cells were incubated for two days in an incubator maintained at 37° C. and 5% CO2, after that, the IFN-γ concentration in each culture was measured by a conventional enzyme immunoassay. […]

The test system is the same in assay [2]. In words: IL-2, IFN-γ and IgA production by immunocompetent cells from the Peyer's patches of orally treated mice, LPS or Con A stimulation (Experiment 2). To be noted: 0.1 g/kg oral, five times per week for four weeks, three days culture. It is filed as in vivo, female ddY mice. On the procedure:
The effect on the response of immunocompetent cells with trehalose administration was evaluated by the production level of IL-2, IFN-γ, and IgA as a merkmal when the immunocompetent cells from the Peyer's patches stimulated with lipopolysaccharide (LPS) or Concanavalin A (Con A). Specifically, 0.1 g/kg mouse body weight of α,α-trehalose was administrated into female ddY mice through oral administration for four weeks with five times per a week, and non-α,α-trehalose administrated mice were used as a control. All the mice were anatomized and picked up all the Peyer's patches, which were then cut into pieces and treated with 0.2% (w/v) of collagenase solution at 37° C. for 30 minutes, passed through a cell strainer to remove non-digestive materials, and centrifuged to obtain a pellet. The pellet was suspended with a 45% (v/v) percol solution, and the suspension was put on a 75% (v/v) percol solution and centrifuged. Then, immunocompetent cells in an inter layer of percol were recovered and suspended in RPMI1640 medium with 10% of fetal calf serum and 5×10^−5 mol/l of 2-mercaptethanol. The resulting suspension was divided into three groups, and the two groups of which were mixed with 2 μg/ml of LPS or 5 μg/ml of Con A and adjusted a final concentration to 1×10^6 cells/ml. The resulting group as a control was not received with the above stimulation. They were incubated for three days in an incubator maintained at 37° C. and 5% CO2. Thereafter, the concentrations of the IL-2, IFN-γ and IgA concentration in the resulting cultures were measured by a conventional immunoassay method in Experiment 1.

Consider `OC[C@H]1O[C@H](O[C@H]2O[C@H](CO)[C@@H](O)[C@H](O)[C@H]2O)[C@H](O)[C@@H](O)[C@@H]1O` [α,α-Trehalose, α,α-trehalose], for which, in assay [1] (cells with 0 μg/ml LPS), the “IFN-γ production with no LPS stimulation” value is “tendency to decrease IFN-γ production”. The “IFN-γ production under the LPS stimulation” value in assay [1] (cells with 0.2 or 1 μg/ml LPS) is reported as “stronger tendency of increasing production of IFN-γ”. Moreover, the IFN-γ result in assay [2] (no stimulation) was “Under 0.4 IU/ml”; in assay [2] (stimulation Con A 5 μg/ml), 6.4 IU/ml; in assay [2] (stimulation LPS 2 μg/ml), 4.5 IU/ml. The IL-2 result in assay [2] (no stimulation) is listed as “Under 50 pg”; in assay [2] (stimulation Con A 5 μg/ml) it was “Under 50 pg”; in assay [2] (stimulation LPS 2 μg/ml), 115 pg. For the same molecule, the values for the IgA in assay [2] (no stimulation), in assay [2] (stimulation Con A 5 μg/ml) and in assay [2] (stimulation LPS 2 μg/ml) were 719 ng/mL, 1671 ng/mL and 2305 ng/mL, respectively.
